Reference: article doi:10.1101/571604v1 (biorxiv, 2019)

Tests used:
[1] = molecular target: T1, FPR2 (PathHunter eXpress CHO-K1 FPR2 cells) (Homo sapiens, UniProt P25090); assay: beta-arrestin recruitment, PathHunter enzyme fragment complementation; assay type: cell-based
T1 sequence (P25090 1-351): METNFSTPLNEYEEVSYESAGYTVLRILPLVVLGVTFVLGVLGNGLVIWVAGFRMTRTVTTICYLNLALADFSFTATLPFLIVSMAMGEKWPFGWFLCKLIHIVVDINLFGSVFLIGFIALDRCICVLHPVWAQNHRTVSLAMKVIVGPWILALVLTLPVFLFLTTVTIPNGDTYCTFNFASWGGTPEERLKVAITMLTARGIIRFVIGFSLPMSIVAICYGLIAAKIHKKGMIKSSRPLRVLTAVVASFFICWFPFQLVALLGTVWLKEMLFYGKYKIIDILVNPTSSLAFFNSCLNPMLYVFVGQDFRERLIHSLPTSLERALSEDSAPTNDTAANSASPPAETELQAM

[2] = molecular target: T2, FPR2 (human blood neutrophils) (Homo sapiens, UniProt P25090); assay: NADPH-oxidase superoxide release, isoluminol chemiluminescence, peak response; assay type: cell-based; details: agonist; naive neutrophils, 37 °C, pH 7.3
T2 sequence (P25090 1-351): T1 sequence (P25090 1-351)

- EC50 [1]: ~20 nM
- EC50 [2]: ~10 nM
SMILES: Cc1cccc(-c2oc(C)nc2C(=O)Nc2cnn(Cc3nc(C(C)(F)F)co3)n2)c1 [Act-389949, N-(2-{[4-(1,1-difluoroethyl)-1,3-oxazol-2-yl]methyl}-2H-1,2,3-triazol-4-yl)-2-methyl-5-(3-methylphenyl)-1,3-oxazole-4-carboxamide]
